From patent US8936930B2, “Red microalgae expressing exogenous polypeptides and methods of generating and utilizing same” (priority 2004, dated 2015)

Test system: Porphyridium sp.
Experiment: Antibiotic sensitivities of Porphyridium sp. (growth in ASW supplemented with antibiotic)
Assay type: cell-based, Porphyridium sp. (UTEX 637)
Set-up: key to Growth: ++: no inhibition of growth rate; +: slight inhibition of growth rate; −: no growth
Details: for Growth: Porphyridium sp. in ASW
Description: Porphyridium sp. (UTEX 637, from the culture collection of algae at the University of Texas at Austin) cells were cultured in artificial seawater (ASW; Jones et al. Plant Physiol. 16:636-643, 1963) supplemented with different antibiotic compounds for evaluating antibiotic sensitivities.

O=C(N[C@H](CO)[C@H](O)c1ccc([N+](=O)[O-])cc1)C(Cl)Cl [Chloramphenicol]
Growth (200 μg/ml): +
Growth (500 μg/ml): −

C[C@@H]1C[C@@H]([C@H](O)CC2CC(=O)NC(=O)C2)C(=O)[C@@H](C)C1 [Cyclohexhimide]
Growth (5 μM): −

CN[C@@H]1[C@@H](O)[C@@H](O[C@@H]2[C@@H](O)[C@H](O[C@H]3O[C@H]([C@@H](C)O)[C@@H](O)[C@H](O)[C@H]3N)[C@@H](N)C[C@H]2N)OC[C@]1(C)O [G418]
Growth (2 μg/ml): +

NC[C@H]1O[C@H](O[C@H]2[C@H](O)[C@@H](O[C@H]3O[C@H](CO)[C@@H](O)[C@H](N)[C@H]3O)[C@H](N)C[C@@H]2N)[C@H](O)[C@@H](O)[C@@H]1O [Kanamycin]
Growth (700 μg/ml): ++

CCC[C@@H]1C[C@@H](C(=O)N[C@@H]([C@H]2O[C@H](SC)[C@H](O)[C@@H](O)[C@H]2O)[C@@H](C)O)N(C)C1 [Lincomycin]
Growth (300 μg/ml): ++

CN(Cc1cnc2nc(N)nc(N)c2n1)c1ccc(C(=O)N[C@@H](CCC(=O)O)C(=O)O)cc1 [Methotrexate]
Growth (80 μg/ml): ++

NC[C@@H]1O[C@H](O[C@H]2[C@@H](O)[C@H](O[C@@H]3[C@@H](O)[C@H](N)C[C@H](N)[C@H]3O[C@H]3O[C@H](CO)[C@@H](O)[C@H](O)[C@H]3N)O[C@@H]2CO)[C@H](N)[C@@H](O)[C@@H]1O [Paramomycin]
Growth (200 μg/ml): ++

CN[C@@H]1[C@H](O)[C@H](NC)[C@H]2O[C@@]3(O)C(=O)C[C@@H](C)O[C@H]3O[C@@H]2[C@H]1O [Spectinomycin]
Growth (300 μg/ml): ++

Cc1c(N)nc([C@H](CC(N)=O)NC[C@H](N)C(N)=O)nc1C(=O)N[C@H](C(=O)N[C@H](C)[C@@H](O)[C@H](C)C(=O)N[C@H](C(=O)NCCC1=N[C@@H](c2nc(C(=O)NCCCCN=C(N)N)cs2)CS1)[C@@H](C)O)[C@@H](O[C@@H]1O[C@@H](CO)[C@@H](O)[C@H](O)[C@@H]1O[C@H]1O[C@H](CO)[C@@H](O)[C@H](OC(N)=O)[C@@H]1O)c1cnc[nH]1 [Zeocin]
Growth of untransformed (wild-type) Porphyridium sp. (in words) (zeocin 4 μg/ml, 17 days incubation in ASW medium): no growth
Growth of wild type Porphyridium sp. (in words) (zeocin 10 μg/ml): no growth
Growth of Porphyridium sp. (in words) (zeocin 4-8 μg/ml): no growth

Neomycin
Growth (150 μg/ml): ++

Phleomycin
Growth (10 μg/ml): ++
